Results published in PubChem BioAssay AID1259407 (Chemical Carcinogenesis Research Information System (CCRIS), 2018).
Calls of active or inactive are those of the source. How the calls were made is not given here.

System: CCRIS mutagenicity, Ames/micronucleus/aberration tests
Assay: CCRIS mutagenicity studies

Measured: mutagenic call

CCCCC(CC)COC(=O)c1ccc(N(C)N=O)cc1 (stereo not given)
inactive: Test System: AMES SALMONELLA TYPHIMURIUM, Strain/Indicator: TA98, Metabolic Activation: HAMSTER, LIVER, S-9, AROCLOR 1254, Method: PREINCUBATION inactive; negative | Test System: AMES SALMONELLA TYPHIMURIUM, Strain/Indicator: TA98, Metabolic Activation: HAMSTER, LIVER, S-9, AROCLOR 1254, Method: STANDARD PLATE inactive; negative | Test System: AMES SALMONELLA TYPHIMURIUM, Strain/Indicator: TA98, Metabolic Activation: NONE, Method: PREINCUBATION inactive; negative | Test System: AMES SALMONELLA TYPHIMURIUM, Strain/Indicator: TA98, Metabolic Activation: NONE, Method: STANDARD PLATE inactive; negative | Test System: AMES SALMONELLA TYPHIMURIUM, Strain/Indicator: TA98, Metabolic Activation: RAT, LIVER, S-9, AROCLOR 1254, Method: PREINCUBATION inactive; negative | Test System: AMES SALMONELLA TYPHIMURIUM, Strain/Indicator: TA98, Metabolic Activation: RAT, LIVER, S-9, AROCLOR 1254, Method: STANDARD PLATE inactive; negative | Test System: AMES SALMONELLA TYPHIMURIUM, Strain/Indicator: TA100, Metabolic Activation: HAMSTER, LIVER, S-9, AROCLOR 1254 (1.5 OR 3.6 MG), Method: PREINCUBATION inactive; negative | Test System: AMES SALMONELLA TYPHIMURIUM, Strain/Indicator: TA100, Metabolic Activation: HAMSTER, LIVER, S-9, AROCLOR 1254, Method: PREINCUBATION inactive; negative | Test System: AMES SALMONELLA TYPHIMURIUM, Strain/Indicator: TA100, Metabolic Activation: HAMSTER, LIVER, S-9, AROCLOR 1254, Method: STANDARD PLATE inactive; negative | Test System: AMES SALMONELLA TYPHIMURIUM, Strain/Indicator: TA100, Metabolic Activation: NONE, Method: PREINCUBATION inactive; negative | Test System: AMES SALMONELLA TYPHIMURIUM, Strain/Indicator: TA100, Metabolic Activation: NONE, Method: STANDARD PLATE inactive; negative | Test System: AMES SALMONELLA TYPHIMURIUM, Strain/Indicator: TA100, Metabolic Activation: RAT, LIVER, S-9, AROCLOR 1254 (1.5 OR 2.2 MG), Method: PREINCUBATION inactive; negative | Test System: AMES SALMONELLA TYPHIMURIUM, Strain/Indicator: TA100, Metabolic Activation: RAT, LIVER, S-9, AROCLOR 1254, Method: PREINCUBATION inactive; negative | Test System: AMES SALMONELLA TYPHIMURIUM, Strain/Indicator: TA100, Metabolic Activation: RAT, LIVER, S-9, AROCLOR 1254, Method: STANDARD PLATE inactive; negative | Test System: AMES SALMONELLA TYPHIMURIUM, Strain/Indicator: TA1535, Metabolic Activation: HAMSTER, LIVER, S-9, AROCLOR 1254 (1.5 OR 3.6 MG), Method: PREINCUBATION inactive; negative | Test System: AMES SALMONELLA TYPHIMURIUM, Strain/Indicator: TA1535, Metabolic Activation: HAMSTER, LIVER, S-9, AROCLOR 1254, Method: PREINCUBATION inactive; negative | Test System: AMES SALMONELLA TYPHIMURIUM, Strain/Indicator: TA1535, Metabolic Activation: HAMSTER, LIVER, S-9, AROCLOR 1254, Method: STANDARD PLATE inactive; negative | Test System: AMES SALMONELLA TYPHIMURIUM, Strain/Indicator: TA1535, Metabolic Activation: NONE, Method: PREINCUBATION inactive; negative | Test System: AMES SALMONELLA TYPHIMURIUM, Strain/Indicator: TA1535, Metabolic Activation: NONE, Method: STANDARD PLATE inactive; negative | Test System: AMES SALMONELLA TYPHIMURIUM, Strain/Indicator: TA1535, Metabolic Activation: RAT, LIVER, S-9, AROCLOR 1254 (1.5 OR 2.2 MG), Method: PREINCUBATION inactive; negative | Test System: AMES SALMONELLA TYPHIMURIUM, Strain/Indicator: TA1535, Metabolic Activation: RAT, LIVER, S-9, AROCLOR 1254, Method: PREINCUBATION inactive; negative | Test System: AMES SALMONELLA TYPHIMURIUM, Strain/Indicator: TA1535, Metabolic Activation: RAT, LIVER, S-9, AROCLOR 1254, Method: STANDARD PLATE inactive; negative | Test System: AMES SALMONELLA TYPHIMURIUM, Strain/Indicator: TA1537, Metabolic Activation: HAMSTER, LIVER, S-9, AROCLOR 1254, Method: PREINCUBATION inactive; negative | Test System: AMES SALMONELLA TYPHIMURIUM, Strain/Indicator: TA1537, Metabolic Activation: HAMSTER, LIVER, S-9, AROCLOR 1254, Method: STANDARD PLATE inactive; negative | Test System: AMES SALMONELLA TYPHIMURIUM, Strain/Indicator: TA1537, Metabolic Activation: NONE, Method: PREINCUBATION inactive; negative | Test System: AMES SALMONELLA TYPHIMURIUM, Strain/Indicator: TA1537, Metabolic Activation: NONE, Method: STANDARD PLATE inactive; negative | Test System: AMES SALMONELLA TYPHIMURIUM, Strain/Indicator: TA1537, Metabolic Activation: RAT, LIVER, S-9, AROCLOR 1254, Method: PREINCUBATION inactive; negative | Test System: AMES SALMONELLA TYPHIMURIUM, Strain/Indicator: TA1537, Metabolic Activation: RAT, LIVER, S-9, AROCLOR 1254, Method: STANDARD PLATE inactive; negative | Test System: AMES SALMONELLA TYPHIMURIUM, Strain/Indicator: TA1538, Metabolic Activation: HAMSTER, LIVER, S-9, AROCLOR 1254, Method: PREINCUBATION inactive; negative | Test System: AMES SALMONELLA TYPHIMURIUM, Strain/Indicator: TA1538, Metabolic Activation: HAMSTER, LIVER, S-9, AROCLOR 1254, Method: STANDARD PLATE inactive; negative | Test System: AMES SALMONELLA TYPHIMURIUM, Strain/Indicator: TA1538, Metabolic Activation: NONE, Method: PREINCUBATION inactive; negative | Test System: AMES SALMONELLA TYPHIMURIUM, Strain/Indicator: TA1538, Metabolic Activation: NONE, Method: STANDARD PLATE inactive; negative | Test System: AMES SALMONELLA TYPHIMURIUM, Strain/Indicator: TA1538, Metabolic Activation: RAT, LIVER, S-9, AROCLOR 1254, Method: PREINCUBATION inactive; negative | Test System: AMES SALMONELLA TYPHIMURIUM, Strain/Indicator: TA1538, Metabolic Activation: RAT, LIVER, S-9, AROCLOR 1254, Method: STANDARD PLATE inactive; negative | Test System: MOUSE LYMPHOMA, Strain/Indicator: L5178Y (TK+/TK-), Metabolic Activation: HAMSTER, LIVER, S-9, AROCLOR 1254, Method: SUSPENSION/PLATE inactive; negative
